16 compounds from patent US9120812B2, “Pyrimidooxazocine derivatives as mTOR-inhibitors” (SANOFI, priority 2012, dated 2015) can be followed below.

The subject of test [1] is Akt-pS473 in U87MG cells. To be noted: Homo sapiens, U-87 MG; for IC50: read-out: U87 Akt-pS473 % Inhibition or IC50, nM (IC50), U87MG cells.
The test system of test [2] is U87MG tumour cells. As to the kind of experiment: Test of in vitro proliferation of U87MG tumour cells. Format: cell-based. To be noted: Homo sapiens, U-87 MG, 72 h, U87MG cells, 72 hours; read-out: U87 Cell Proliferation IC50. As to the method: Model 4: Test of in vitro Proliferation of U87MG Tumour Cells.
The cell growth is determined with the reagent CellTiter 96 AQueous One Solution Cell Proliferation Assay from Promega (Cat. No. G3581).

The target of test [3] is mTOR (human recombinant aa mTOR 1360-2549) (Homo sapiens (Human), UniProt P42345). As to the kind of experiment: mTOR enzymatic test by TR-FRET (phosphorylation of GFP-4EBP1). Format: biochemical. Summed up: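 After a 30 min room-temperature kinase reaction, EDTA (10 mM final) and Tb-labelled phospho-Thr46 antibody (2 nM final) were added and incubated 60 min. Energy transfer from Tb to phosphorylated GFP-4EBP1 was read at 340 nm excitation, emissions 490/520 nm. Values derive from the 520/490 fluorescence ratio.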
mTOR (human recombinant aa mTOR 1360-2549), sequence (P42345 1360-2549): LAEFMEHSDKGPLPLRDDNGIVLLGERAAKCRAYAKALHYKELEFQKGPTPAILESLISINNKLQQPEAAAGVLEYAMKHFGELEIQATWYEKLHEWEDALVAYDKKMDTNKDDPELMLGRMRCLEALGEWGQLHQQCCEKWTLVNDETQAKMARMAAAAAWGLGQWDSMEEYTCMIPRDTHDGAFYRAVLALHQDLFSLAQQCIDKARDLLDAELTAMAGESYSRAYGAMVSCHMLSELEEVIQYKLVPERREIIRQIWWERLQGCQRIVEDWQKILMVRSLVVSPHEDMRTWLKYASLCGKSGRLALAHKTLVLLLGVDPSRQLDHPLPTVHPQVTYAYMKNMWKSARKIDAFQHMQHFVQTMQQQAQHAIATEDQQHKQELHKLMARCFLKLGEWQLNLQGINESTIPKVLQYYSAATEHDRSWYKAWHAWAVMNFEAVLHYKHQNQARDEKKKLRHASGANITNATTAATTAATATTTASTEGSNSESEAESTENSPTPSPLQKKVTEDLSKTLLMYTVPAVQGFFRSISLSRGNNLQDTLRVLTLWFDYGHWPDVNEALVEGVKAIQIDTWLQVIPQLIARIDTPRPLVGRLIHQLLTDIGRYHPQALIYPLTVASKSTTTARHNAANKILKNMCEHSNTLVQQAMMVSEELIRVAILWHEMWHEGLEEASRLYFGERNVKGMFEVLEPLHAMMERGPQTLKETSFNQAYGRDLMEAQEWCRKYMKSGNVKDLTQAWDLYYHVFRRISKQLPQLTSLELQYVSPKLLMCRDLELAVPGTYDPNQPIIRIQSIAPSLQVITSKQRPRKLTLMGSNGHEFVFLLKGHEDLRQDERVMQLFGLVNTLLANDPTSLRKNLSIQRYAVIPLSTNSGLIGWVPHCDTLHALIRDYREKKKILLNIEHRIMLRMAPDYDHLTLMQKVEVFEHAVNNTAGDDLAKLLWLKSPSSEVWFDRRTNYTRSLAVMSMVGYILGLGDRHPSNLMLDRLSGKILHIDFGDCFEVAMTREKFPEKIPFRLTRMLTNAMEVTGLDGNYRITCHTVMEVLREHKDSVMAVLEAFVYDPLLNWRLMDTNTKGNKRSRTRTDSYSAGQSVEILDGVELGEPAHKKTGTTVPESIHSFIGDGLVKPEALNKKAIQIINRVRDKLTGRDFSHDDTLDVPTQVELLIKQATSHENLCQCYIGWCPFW

In test [4] the target is PI3Kα (p110α/p85α) (Homo sapiens (Human), UniProt P42336). As to the kind of experiment: PI3Kα enzymatic test by measuring the consumption of ATP. It counts as biochemical. Summed up: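 ATP consumption read out by KinaseGlo luminescence after a 90 min reaction of 1.7 μg/ml PI3Kα (p110α/p85α) with 2 μM ATP and 50 μM PIP2, buffered at pH 7.5 (Tris, 10 mM MgCl2, 1 mM EGTA, 0.03% Chaps, 1 mM DTT). Threefold dilution series over ≥10 000-fold range yield IC50.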
PI3Kα (p110α/p85α), sequence (P42336 whole entry): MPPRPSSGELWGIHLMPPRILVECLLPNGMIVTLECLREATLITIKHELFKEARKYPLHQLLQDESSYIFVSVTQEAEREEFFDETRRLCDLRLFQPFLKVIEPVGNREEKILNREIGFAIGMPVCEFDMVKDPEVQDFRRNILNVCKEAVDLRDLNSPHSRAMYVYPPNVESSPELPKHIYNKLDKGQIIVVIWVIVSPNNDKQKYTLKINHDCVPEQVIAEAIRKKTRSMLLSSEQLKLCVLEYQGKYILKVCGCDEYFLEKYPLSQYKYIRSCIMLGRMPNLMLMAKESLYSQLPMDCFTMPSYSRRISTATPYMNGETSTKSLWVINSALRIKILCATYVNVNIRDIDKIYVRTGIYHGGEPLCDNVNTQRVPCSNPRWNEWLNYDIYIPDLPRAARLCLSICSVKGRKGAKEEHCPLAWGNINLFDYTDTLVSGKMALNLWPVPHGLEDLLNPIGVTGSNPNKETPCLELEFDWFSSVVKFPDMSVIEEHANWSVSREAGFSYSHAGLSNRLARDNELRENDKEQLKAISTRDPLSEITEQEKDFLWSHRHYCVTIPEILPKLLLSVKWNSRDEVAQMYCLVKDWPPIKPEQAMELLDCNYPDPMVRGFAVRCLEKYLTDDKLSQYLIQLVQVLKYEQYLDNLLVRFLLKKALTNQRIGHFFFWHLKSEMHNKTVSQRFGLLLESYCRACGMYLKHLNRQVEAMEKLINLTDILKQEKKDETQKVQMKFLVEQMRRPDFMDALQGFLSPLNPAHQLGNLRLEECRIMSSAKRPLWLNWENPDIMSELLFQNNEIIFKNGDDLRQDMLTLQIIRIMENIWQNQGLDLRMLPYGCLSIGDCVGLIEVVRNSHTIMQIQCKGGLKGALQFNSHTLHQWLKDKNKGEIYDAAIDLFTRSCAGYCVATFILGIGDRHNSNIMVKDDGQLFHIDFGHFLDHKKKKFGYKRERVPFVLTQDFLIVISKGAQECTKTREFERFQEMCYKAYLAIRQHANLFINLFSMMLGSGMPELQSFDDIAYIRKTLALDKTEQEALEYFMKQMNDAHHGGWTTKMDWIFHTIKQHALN
PI3Kα (p110α/p85α), sequence (P27986 whole entry partner): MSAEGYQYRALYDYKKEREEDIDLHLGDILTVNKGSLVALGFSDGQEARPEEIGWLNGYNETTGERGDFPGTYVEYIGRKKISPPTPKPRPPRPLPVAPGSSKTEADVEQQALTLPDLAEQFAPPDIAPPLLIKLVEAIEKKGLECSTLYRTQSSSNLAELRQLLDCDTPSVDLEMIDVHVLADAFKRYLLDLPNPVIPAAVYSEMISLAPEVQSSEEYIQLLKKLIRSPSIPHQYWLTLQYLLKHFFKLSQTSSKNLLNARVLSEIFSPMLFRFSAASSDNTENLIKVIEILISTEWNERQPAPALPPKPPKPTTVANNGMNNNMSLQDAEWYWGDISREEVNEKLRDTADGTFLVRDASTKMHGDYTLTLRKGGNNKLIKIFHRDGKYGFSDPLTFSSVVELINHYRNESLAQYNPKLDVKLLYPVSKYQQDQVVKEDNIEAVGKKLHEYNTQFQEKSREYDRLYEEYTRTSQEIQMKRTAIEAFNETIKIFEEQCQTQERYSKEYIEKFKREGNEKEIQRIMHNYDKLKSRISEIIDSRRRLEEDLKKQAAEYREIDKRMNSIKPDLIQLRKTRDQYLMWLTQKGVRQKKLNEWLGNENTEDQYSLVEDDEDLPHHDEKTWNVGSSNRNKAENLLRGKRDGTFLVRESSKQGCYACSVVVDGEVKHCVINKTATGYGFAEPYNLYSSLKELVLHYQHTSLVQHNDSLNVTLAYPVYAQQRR

For the compound `CCN1CC(C)(C)Oc2nc(N3CC4CCC(C3)O4)nc(-c3ccc(NC(=O)Nc4ccc(N5CCN(C)CC5)cc4)c(F)c3)c2C1=O` [Example 13, 1-{4-[6-ethyl-8,8-dimethyl-2-(8-oxa-3-azabicyclo[3.2.1]oct-3-yl)-5-oxo-5,6,7,8-tetrahydro-9-oxa-1,3,6-triazabenzocyclohepten-4-yl]-2-fluorophenyl}-3-[4-(4-methylpiperazin-1-yl)phenyl]urea], the IC50 was determined as 13 nM in test [1], 32 nM in test [2] and 132 nM in test [3]. The “PI3Ka IC50” value in test [4] is recorded as 6470 nM.

Take `CCN1CC(C)(C)Oc2nc(N3CC4CCC(C3)O4)nc(-c3ccc(NC(=O)Nc4ccc(OC)cn4)cc3)c2C1=O` [Example 44, 1-{4-[6-Ethyl-8,8-dimethyl-2-(8-oxa-3-azabicyclo[3.2.1]oct-3-yl)-5-oxo-5,6,7,8-tetrahydro-9-oxa-1,3,6-triazabenzocyclohepten-4-yl]phenyl}-3-(5-methoxypyridin-2-yl)urea]: the IC50 turned out to be 40 nM in test [1], 220 nM in test [2] and 34 nM in test [3]. For the same compound, in test [4], the “PI3Ka IC50” value was greater than 10000 nM.

As to `Cc1cc(NC(=O)Nc2ccc(-c3nc(N4C5CCC4COC5)nc4c3C(=O)N(C)CC(C)(C)O4)cc2F)ccn1` [Example 59, 1-{2-Fluoro-4-[6,8,8-trimethyl-2-(3-oxa-8-azabicyclo[3.2.1]oct-8-yl)-5-oxo-5,6,7,8-tetrahydro-9-oxa-1,3,6-triazabenzocyclohepten-4-yl]phenyl}-3-(2-methylpyridin-4-yl)urea], the IC50 in test [1] worked out at 36 nM; in test [2], 42 nM; in test [3], 67 nM. For the same compound, the “PI3Ka IC50” value in test [4] amounted to 4200 nM.

Regarding `CCN1CC(C)(C)Oc2nc(N3CC4CCC(C3)O4)nc(-c3ccc(NC(=O)Nc4ccc(N5CCN(C)CC5)nc4)c(F)c3)c2C1=O` [Example 195, 1-{4-[6-Ethyl-8,8-dimethyl-2-(8-oxa-3-azabicyclo[3.2.1]oct-3-yl)-5-oxo-5,6,7,8-tetrahydro-9-oxa-1,3,6-triazabenzocyclohepten-4-yl]-2-fluorophenyl}-3-[6-(4-methylpiperazin-1-yl)pyridin-3-yl]urea], the IC50 in test [1] worked out at 45 nM; in test [2] it was 57 nM; in test [3] it was 61 nM. Also, in test [4], the “PI3Ka IC50” value is reported as 6800 nM.

Regarding `CN1CC(C)(C)Oc2nc(N3CC4CCC(C3)O4)nc(-c3ccc(NC(=O)Nc4ccccn4)cc3)c2C1=O` [Example 39, 1-Pyridin-2-yl-3-{4-[6,8,8-trimethyl-2-(8-oxa-3-azabicyclo[3.2.1]oct-3-yl)-5-oxo-5,6,7,8-tetrahydro-9-oxa-1,3,6-triazabenzocyclohepten-4-yl]phenyl}urea], the IC50 in test [1] was determined as 34 nM; in test [2], 207 nM; in test [3], 26 nM. Further, the “PI3Ka IC50” value in test [4] was 5870 nM.

Consider `CCN1CC(C)(C)Oc2nc(N3CC4CCC(C3)O4)nc(-c3ccc(NC(=O)Nc4ccc(N5CC6CCC(C5)O6)cn4)cc3)c2C1=O` [Example 251, 1-{4-[6-Ethyl-8,8-dimethyl-2-(8-oxa-3-azabicyclo[3.2.1]oct-3-yl)-5-oxo-5,6,7,8-tetrahydro-9-oxa-1,3,6-triazabenzocyclohepten-4-yl]phenyl}-3-[5-(8-oxa-3-azabicyclo[3.2.1]oct-3-yl)pyridin-2-yl]urea], for which the figures for the IC50 in test [1], in test [2] and in test [3] were 80 nM, 340 nM and 64 nM, respectively. The “PI3Ka IC50” value in test [4] is listed as greater than 10000 nM.

Turning to `CCN1CC(C)(C)Oc2nc(N3CC4CCC(C3)O4)nc(-c3ccc(NC(=O)Nc4ccnc(N5CC6CCC(C5)O6)c4)c(F)c3)c2C1=O` [Example 260, 1-{4-[6-Ethyl-8,8-dimethyl-2-(8-oxa-3-azabicyclo[3.2.1]oct-3-yl)-5-oxo-5,6,7,8-tetrahydro-9-oxa-1,3,6-triazabenzocyclohepten-4-yl]-2-fluorophenyl}-3-[2-(8-oxa-3-azabicyclo[3.2.1]oct-3-yl)pyridin-4-yl]urea], the IC50 was found to be 24 nM in test [1], 95 nM in test [2] and 174 nM in test [3]. In addition, the “PI3Ka IC50” value in test [4] is reported as greater than 10000 nM.

Turning to `CCN1CC(C)(C)Oc2nc(N3CCOC[C@@H]3C)nc(-c3ccc(NC(=O)Nc4ccccn4)c(F)c3)c2C1=O` [Example 192, 1-{4-[6-Ethyl-8,8-dimethyl-2-((S)-3-methylmorpholin-4-yl)-5-oxo-5,6,7,8-tetrahydro-9-oxa-1,3,6-triazabenzocyclohepten-4-yl]-2-fluorophenyl}-3-pyridin-2-ylurea], in test [1] (read-out: U87 Akt-pS473 % Inhibition), the inhibition – broadly, the percentage by which the read-out fell short of the control – at 3 µM worked out at 82%. In addition, the IC50 in test [2] is 1770 nM; in test [3] it was 29 nM. In test [4], the “PI3Ka IC50” value is 1310 nM.

For `CCN1CC(C)(C)Oc2nc(N3C4CCC3COC4)nc(-c3ccc(NC(=O)Nc4cc(OC)ccn4)cc3)c2C1=O` [Example 79, 1-{4-[6-Ethyl-8,8-dimethyl-2-(3-oxa-8-azabicyclo[3.2.1]oct-8-yl)-5-oxo-5,6,7,8-tetrahydro-9-oxa-1,3,6-triazabenzocyclohepten-4-yl]phenyl}-3-(4-methoxypyridin-2-yl)urea], the IC50 in test [1] stood at 41 nM; in test [2], 383 nM; in test [3], 53 nM. In test [4], the “PI3Ka IC50” value is reported as greater than 10000 nM.

As for `CCNC(=O)Nc1ccc(-c2nc(N3CC4CCC(C3)O4)nc3c2C(=O)N(CC)CC(C)(C)O3)cc1F` [Example 110, 1-Ethyl-3-{4-[6-ethyl-8,8-dimethyl-2-(8-oxa-3-azabicyclo[3.2.1]oct-3-yl)-5-oxo-5,6,7,8-tetrahydro-9-oxa-1,3,6-triazabenzocyclohepten-4-yl]-2-fluorophenyl}urea], the IC50 in test [1] stood at 89 nM; in test [2], 506 nM; in test [3], 45 nM. In addition, in test [4], the “PI3Ka IC50” value is greater than 10000 nM.

For `CCN1CC(C)(C)Oc2nc(N3CC4CCC(C3)O4)nc(-c3ccc(NC(=O)Nc4ccnc(N5CCN(S(C)(=O)=O)CC5)c4)c(F)c3)c2C1=O` [Example 80, 1-{4-[6-Ethyl-8,8-dimethyl-2-(8-oxa-3-azabicyclo[3.2.1]oct-3-yl)-5-oxo-5,6,7,8-tetrahydro-9-oxa-1,3,6-triazabenzocyclohepten-4-yl]-2-fluorophenyl}-3-[2-(4-methanesulfonylpiperazin-1-yl)pyridin-4-yl]urea], the IC50 in test [1] was found to be 48 nM; in test [2], 151 nM; in test [3], 72 nM. In test [4], the “PI3Ka IC50” value is given as greater than 10000 nM.

`CN1CC(C)(C)Oc2nc(N3C4CCC3COC4)nc(-c3ccc(NC(=O)Nc4ccncc4)cc3)c2C1=O` [Example 68, 1-Pyridin-4-yl-3-{4-[6,8,8-trimethyl-2-(3-oxa-8-azabicyclo[3.2.1]oct-8-yl)-5-oxo-5,6,7,8-tetrahydro-9-oxa-1,3,6-triazabenzocyclohepten-4-yl]phenyl}urea]: the figures for the IC50 in test [1], in test [2] and in test [3] were 16 nM, 82 nM and 12 nM, respectively. Also, the “PI3Ka IC50” value in test [4] is 1360 nM.

On to `CC[C@H]1COCCN1c1ccc(NC(=O)Nc2ccc(-c3nc(N4CCOC[C@@H]4C)nc4c3C(=O)N(CC)CC(C)(C)O4)cc2F)cn1` [Example 248, 1-{4-[6-Ethyl-8,8-dimethyl-2-((S)-3-methylmorpholin-4-yl)-5-oxo-5,6,7,8-tetrahydro-9-oxa-1,3,6-triazabenzocyclohepten-4-yl]-2-fluorophenyl}-3-[6-((S)-3-ethylmorpholin-4-yl)pyridin-3-yl]urea], for which the IC50 in test [1] came out at 29 nM; in test [2] it was 96 nM; in test [3] it was 68 nM. Also, the “PI3Ka IC50” value in test [4] is given as greater than 10000 nM.

Consider `CCN1CC(C)(C)Oc2nc(N3CC4CCC(C3)O4)nc(-c3ccc(NC(=O)Nc4cnn(C)c4)c(F)c3)c2C1=O` [Example 143, 1-{4-[6-Ethyl-8,8-dimethyl-2-(8-oxa-3-azabicyclo[3.2.1]oct-3-yl)-5-oxo-5,6,7,8-tetrahydro-9-oxa-1,3,6-triazabenzocyclohepten-4-yl]-2-fluorophenyl}-3-(1-methyl-1H-pyrazol-4-yl)urea], for which the IC50 in test [1] amounted to 62 nM; in test [2], 295 nM; in test [3], 19 nM. Moreover, in test [4], the “PI3Ka IC50” value is given as 3180 nM.

As for `CCN1CC(C)(C)Oc2nc(N3CCOC[C@@H]3C)nc(-c3ccc(NC(=O)Nc4cc(OC)ccn4)cc3F)c2C1=O` [Example 242, 1-{4-[6-Ethyl-8,8-dimethyl-2-((S)-3-methylmorpholin-4-yl)-5-oxo-5,6,7,8-tetrahydro-9-oxa-1,3,6-triazabenzocyclohepten-4-yl]-3-fluorophenyl}-3-(4-methoxypyridin-2-yl)urea], the figures for the IC50 in test [1], in test [2] and in test [3] were 770 nM, 2300 nM and 89 nM, respectively. The “PI3Ka IC50” value in test [4] was greater than 10000 nM.

`CCN1CC(C)(C)Oc2nc(N3CC4CCC(C3)O4)nc(-c3ccc(NC(=O)NCCO)cc3)c2C1=O` [Example 117, 1-{4-[6-Ethyl-8,8-dimethyl-2-(8-oxa-3-azabicyclo[3.2.1]oct-3-yl)-5-oxo-5,6,7,8-tetrahydro-9-oxa-1,3,6-triazabenzocyclohepten-4-yl]phenyl}-3-(2-hydroxyethyl)urea]: the IC50 in test [1] came to 812 nM; in test [2], 1700 nM; in test [3] it was 25 nM. Further, the “PI3Ka IC50” value in test [4] is listed as 7410 nM.
